The record followed here is PMC8911723, “Design, Synthesis, and Cytotoxic Activity of Novel Natural Arylsulfonamide-Inspired Molecules” (Molecules, 2022).

A short description of data set [1]: MTT in vitro cytotoxicity assay, A875 cells. Type of data set: cell-based. Conditions: A875 melanoma cells, A875 human melanoma cell line, triplicate, three independent experiments. From the text:
(§1) Pharmacological evaluation: All target carboxamide derivatives derived from natural arylsulfonamides 10a–r were screened for their potential in vitro cytotoxic effects on A875 (human melanoma), HepG2 (human hepatocellular liver carcinoma), and MARC145 (A subclone of African green monkey kidney cell line MA-104) cell lines using the standard MTT assay, with 5-FU (5-fluorouracil) as a positive control. The IC50 value represents the drug concentration required to inhibit cell growth by 50%.
(§2) Bioassays: The in vitro cytotoxicity of the novel carbazole derivatives against human melanoma (A875), human hepatocellular liver carcinoma (HepG2), and a subclone of African green monkey kidney cell line MA-104 (MARC145) cell lines was evaluated using the MTT assay. All data were analyzed with SPSS software, and the 50% inhibitory concentrations (IC50) of each compound for the different cell lines were determined. All assays were performed in triplicate on three independent experiments.

Data set [2] in a line: MTT in vitro cytotoxicity assay, HepG2 cells. The class given is cell-based, human. Conditions: HepG2 hepatocellular liver carcinoma cells; HepG2 human hepatocellular liver carcinoma cell line; MTT assay; triplicate, three independent experiments.
Description: as §1, §2

Data set [3] is described as follows: MTT in vitro cytotoxicity assay, MARC145 cells. Type of data set: cell-based, African green monkey. Conditions: MARC145 kidney cells (subclone of MA-104); MARC145 African green monkey kidney cell line; MTT assay; triplicate, three independent experiments.
Description: as §1, §2
A general note: Tetrazolium dyes change colour on reduction, which living cells bring about.

Data set [4] relates to HepG2 (human hepatocellular liver carcinoma) cell line. The experiment in a line: MTT in vitro cytotoxicity assay, HepG2 cells. Type of data set: cell-based. Conditions: HepG2 cells; concentration 40 µg/mL; preliminary screening (Figure 4).
Description: as §1, §2

Data set [5] relates to MARC145 (a subclone of African green monkey kidney cell line MA-104). The experiment in a line: MTT in vitro cytotoxicity assay, MARC145 cells. Type of data set: cell-based. Conditions: MARC145 cells; concentration 40 µg/mL; preliminary screening (Figure 4).
Description: as §1, §2

The structures appear in SMILES notation. Converted amounts (≈) assume the structure as drawn.

Broadly, the IC50 is the concentration needed to halve the response being measured. What is called melting point is the temperature, or range, at which the solid turns liquid. Molecule `Cc1onc(NS(=O)(=O)c2ccc(NC(=O)c3cc(Br)nn3-c3ncccc3Cl)cc2)c1C` [10g, 3-Bromo-1-(3-chloropyridin-2-yl)-N-(4-(N-(4,5-dimethylisoxazol-3-yl)sulfamoyl)phenyl)-1H-pyrazole-5-carboxmide] had a melting point of 171 to 172 °C. The molecule further yielded an IC50 in data set [1] greater than 40 µg/mL. This molecule also gave an IC50 in data set [2] greater than 40 µg/mL. The IC50 in data set [3] was greater than 40 µg/mL.
Molecule `O=C(Nc1ccc(S(=O)(=O)Nc2ccccc2Oc2ccccc2)cc1)c1ccccc1-c1ccc(C(F)(F)F)cc1` [10n, N-(4-(N-(2-Phenoxyphenyl)sulfamoyl)phenyl)-4′-(trifluoromethyl)-[1,1′-biphenyl]-2-carboxamide] had a melting point of 173 to 174 °C. In data set [1], the IC50 is greater than 40 µg/mL. Further, in data set [2], the IC50 was greater than 40 µg/mL. This molecule also registered an IC50 in data set [3] of 22.6 ± 2.78 µg/mL (≈ 38.3 µM).
Take `Cc1onc(NS(=O)(=O)c2ccc(NC(=O)c3ccccc3-c3ccc(C(F)(F)F)cc3)cc2)c1C` [10o, N-(4-(N-(4,5-Dimethylisoxazol-3-yl)sulfamoyl)phenyl)-4′-(trifluoromethyl)-[1,1′-biphenyl]-2-carboxamide]: the melting point is 199 to 200 °C. In data set [1], this molecule gave an IC50 greater than 40 µg/mL. The molecule further gave an IC50 in data set [2] greater than 40 µg/mL. In addition, the IC50 in data set [3] is greater than 40 µg/mL.
On to `Cc1c(C(=O)Nc2ccc(S(=O)(=O)Nc3ccccc3C(F)(F)F)cc2)cccc1-c1ccccc1` [10l, 2-Methyl-N-(4-(N-(2-(trifluoromethyl)phenyl)sulfamoyl)phenyl)-[1,1′-biphenyl]-3-carboxamide], for which the IC50 is 10.8 ± 2.28 µg/mL (≈ 21.1 µM) in data set [1], 9.03 ± 1.49 µg/mL (≈ 17.7 µM) in data set [2] and 5.62 ± 0.98 µg/mL (≈ 11 µM) in data set [3]. In addition, the “Inhibitory activity at 40 µg/mL compared with control 5-FU” value in data set [4] and in data set [5] was “significantly higher activities compared with the control” in each case.
Regarding `COC(=O)c1ccccc1NC(=O)c1ccccc1NS(=O)(=O)c1ccc(-c2ccccc2)cc1` [NC2, Methyl 2-(2-([1,1′-biphenyl]-4-sulfonamido)benzamido)benzoate], the IC50 in data set [1] and in data set [3] was greater than 40 µg/mL each time.
For `CC(C(=O)Nc1ccc(S(=O)(=O)Nc2ccccc2Oc2ccccc2)cc1)c1ccc2c(c1)[nH]c1ccc(Cl)cc12` (stereo not drawn) [10r, 2-(6-Chloro-9H-carbazol-2-yl)-N-(4-(N-(2-phenoxyphenyl)sulfamoyl)phenyl)propanamide], the melting point lay within 166 to 167 °C. This molecule had a half-inhibitory concentration (IC50) in data set [1] of 15.2 ± 2.4 µg/mL (≈ 25.4 µM). This molecule also showed an IC50 in data set [2] of 8.84 ± 1.68 µg/mL (≈ 14.8 µM). In addition, in data set [4], the “Inhibitory activity at 40 µg/mL compared with control 5-FU” value is on record as “significantly higher activities compared with the control”. Further, in data set [3], the IC50 came to 5.96 ± 1.33 µg/mL (≈ 10 µM). In data set [5], the “Inhibitory activity at 40 µg/mL compared with control 5-FU” value is on record as “significantly higher activities compared with the control”.
For the molecule `Cc1c(C(=O)Nc2ccc(S(=O)(=O)Nc3ccccc3Oc3ccccc3)cc2)cccc1-c1ccccc1` [10j, 2-Methyl-N-(4-(N-(2-phenoxyphenyl)sulfamoyl)phenyl)-[1,1′-biphenyl]-3-carboxamide], the IC50 in data set [1], in data set [2] and in data set [3] was greater than 40 µg/mL throughout.
With `O=C(Nc1ccc(S(=O)(=O)Nc2ccccc2Oc2ccccc2)cc1)c1ccccc1C(F)(F)F` [10b, N-(4-(N-(2-Phenoxyphenyl)sulfamoyl)phenyl)-2-(trifluoromethyl)benzamide], the IC50 in data set [1], in data set [2] and in data set [3] was greater than 40 µg/mL in each case.
`CC(C(=O)Nc1ccc(S(=O)(=O)Nc2ccccc2C(F)(F)F)cc1)c1ccc2c(c1)[nH]c1ccc(Cl)cc12` (stereo not drawn) [10q, 2-(6-Chloro-9H-carbazol-2-yl)-N-(4-(N-(2-(trifluoromethyl)phenyl)sulfamoyl)phenyl)propanamide] came in with a melting point of 159 to 160 °C. In data set [1], this molecule showed an IC50 of 4.19 ± 0.78 µg/mL (≈ 7.33 µM). The same molecule returned an IC50 in data set [2] of 3.55 ± 0.63 µg/mL (≈ 6.21 µM). Besides, the “Inhibitory activity at 40 µg/mL compared with control 5-FU” value in data set [4] is “significantly higher activities compared with the control”. The molecule further yielded an IC50 in data set [3] of 2.95 ± 0.78 µg/mL (≈ 5.16 µM). The “Inhibitory activity at 40 µg/mL compared with control 5-FU” value in data set [5] was “significantly higher activities compared with the control”.
In the case of `Cc1onc(NS(=O)(=O)c2ccc(NC(=O)c3ccccc3C(F)(F)F)cc2)c1C` [10c, N-(4-(N-(4,5-Dimethylisoxazol-3-yl)sulfamoyl)phenyl)-2-(trifluoromethyl)benzamide], the melting point lay in the range of 183 to 184 °C. Besides, the concentration for half-maximal inhibition (IC50) in data set [1] was greater than 40 µg/mL. The same molecule displayed an IC50 in data set [2] greater than 40 µg/mL. The same molecule registered an IC50 in data set [3] greater than 40 µg/mL.
The molecule `O=C(O)c1ccccc1NS(=O)(=O)c1ccc(-c2ccccc2)cc1` [NC1, 2-([1,1′-Biphenyl]-4-sulfonamido)benzoic acid] came in with a melting point of 205 to 207 °C. For the same molecule, in data set [1], it took 27.2 ± 5.39 µg/mL (≈ 76.9 µM) to reach half-maximal inhibition (IC50). For the same molecule, the IC50 in data set [3] was 25.8 ± 10.4 µg/mL (≈ 73 µM).
With `O=C(Nc1ccc(S(=O)(=O)Nc2ccccc2C(F)(F)F)cc1)c1ccccc1C(F)(F)F` [10d, 2-(Trifluoromethyl)-N-(4-(N-(2-(trifluoromethyl)phenyl)sulfamoyl)phenyl)benzamide], the IC50 was greater than 40 µg/mL in data set [1], 33.1 ± 2.13 µg/mL (≈ 67.7 µM) in data set [2] and 24.9 ± 4.45 µg/mL (≈ 51 µM) in data set [3].
`O=C(Nc1ccc(S(=O)(=O)Nc2ccccc2-c2ccccc2)cc1)c1cc(Br)nn1-c1ncccc1Cl` [10e, N-(4-(N-([1,1′-Biphenyl]-2-yl)sulfamoyl)phenyl)-3-bromo-1-(3-chloropyridin-2-yl)-1H-pyrazole-5-carboxamide] returned a melting point of 156 to 157 °C. Besides, the IC50 in data set [1] was greater than 40 µg/mL. In data set [2], this molecule registered an IC50 greater than 40 µg/mL. Besides, in data set [3], the IC50 was greater than 40 µg/mL.
As for `Cc1c(C(=O)Nc2ccc(S(=O)(=O)Nc3ccccc3-c3ccccc3)cc2)cccc1-c1ccccc1` [10i, N-(4-(N-([1,1′-Biphenyl]-2-yl)sulfamoyl)phenyl)-2-methyl-[1,1′-biphenyl]-3-carboxamide], the IC50 in data set [1], in data set [2] and in data set [3] was greater than 40 µg/mL each time.
Turning to `O=c1[nH]cc(F)c(=O)[nH]1` [5-FU, 5-fluorouracil, reference compound], the IC50 in data set [1] was determined as 11.8 ± 2.03 µg/mL (≈ 90.4 µM); in data set [2], 15.1 ± 1.06 µg/mL (≈ 116 µM); in data set [3], 13.1 ± 1.32 µg/mL (≈ 100 µM).
Regarding `Cc1onc(NS(=O)(=O)c2ccc(NC(=O)c3cccc(-c4ccccc4)c3C)cc2)c1C` [10k, N-(4-(N-(4,5-Dimethylisoxazol-3-yl)sulfamoyl)phenyl)-2-methyl-[1,1′-biphenyl]-3-carboxamide], the melting point fell in the range of 156 to 157 °C. Further, the IC50 in data set [1] was greater than 40 µg/mL. In addition, the midpoint of inhibition in data set [2], the IC50, lay at 34.7 ± 2.94 µg/mL (≈ 75.2 µM). The same molecule gave an IC50 in data set [3] greater than 40 µg/mL.
Regarding `O=C(Nc1ccc(S(=O)(=O)Nc2ccccc2C(F)(F)F)cc1)c1ccccc1-c1ccc(C(F)(F)F)cc1` [10p, 4′-(Trifluoromethyl)-N-(4-(N-(2-(trifluoromethyl)phenyl)sulfamoyl)phenyl)-[1,1′-biphenyl]-2-carboxamide], the IC50 in data set [1] amounted to 20.4 ± 3.99 µg/mL (≈ 36.2 µM); in data set [2] it was 9.6 ± 0.88 µg/mL (≈ 17 µM); in data set [3], 8.5 ± 2.55 µg/mL (≈ 15.1 µM). Also, the “Inhibitory activity at 40 µg/mL compared with control 5-FU” value in data set [4] and in data set [5] was “significantly higher activities compared with the control” in each case.
For the molecule `O=C(Nc1ccc(S(=O)(=O)Nc2ccccc2C(F)(F)F)cc1)c1cc(Br)nn1-c1ncccc1Cl` [10h, 3-Bromo-1-(3-chloropyridin-2-yl)-N-(4-(N-(2-(trifluoromethyl)phenyl)sulfamoyl)phenyl)-1H-pyrazole-5-carboxamide], the melting point is 181 to 182 °C. The same molecule registered an IC50 in data set [1] of 16.8 ± 1.14 µg/mL (≈ 27.9 µM). For the same molecule, the IC50 in data set [2] was 14.4 ± 1.89 µg/mL (≈ 23.9 µM). Further, in data set [3], inhibition was half-maximal at 6.75 ± 0.89 µg/mL (≈ 11.2 µM) (IC50).
For `O=C(Nc1ccc(S(=O)(=O)Nc2ccccc2-c2ccccc2)cc1)c1ccccc1C(F)(F)F` [10a, N-(4-(N-([1,1′-Biphenyl]-2-yl)sulfamoyl)phenyl)-2-(trifluoromethyl)benzamide], the IC50 is greater than 40 µg/mL in data set [1], 22.1 ± 3.99 µg/mL (≈ 44.4 µM) in data set [2] and 13.2 ± 2.49 µg/mL (≈ 26.5 µM) in data set [3].
Molecule `O=C(Nc1ccc(S(=O)(=O)Nc2ccccc2-c2ccccc2)cc1)c1ccccc1-c1ccc(C(F)(F)F)cc1` [10m, N-(4-(N-([1,1′-Biphenyl]-2-yl)sulfamoyl)phenyl)-4′-(trifluoromethyl)-[1,1′-biphenyl]-2-carboxamide] displayed a melting point of 163 to 164 °C. Besides, the IC50 in data set [1] is greater than 40 µg/mL. In data set [2], this molecule gave an IC50 greater than 40 µg/mL. In data set [3], this molecule registered an IC50 greater than 40 µg/mL.
On to `O=C(Nc1ccc(S(=O)(=O)Nc2ccccc2Oc2ccccc2)cc1)c1cc(Br)nn1-c1ncccc1Cl` [10f, 3-Bromo-1-(3-chloropyridin-2-yl)-N-(4-(N-(2-phenoxyphenyl)sulfamoyl)phenyl)-1H-pyrazole-5-carboxamide], for which the melting point is 177 to 178 °C. The same molecule returned an IC50 in data set [1] greater than 40 µg/mL. In data set [2], this molecule had a 50% inhibitory concentration (IC50) greater than 40 µg/mL. The molecule further displayed an IC50 in data set [3] of 11.8 ± 2.93 µg/mL (≈ 18.9 µM).
